Data published in patent USRE48461E1, “Modulation of androgen receptor expression” (Ionis Pharmaceuticals, Inc., priority 2012, dated 2021).

What was measured:
Assay type in all cases: cell-based, human
C4-2B cells = assay: C4-2B cell proliferation, ASO in combination with MDV3100 (Example 21); settings: for Proliferation (% untreated control) in C4-2B without MDV-3100: 5 days
Method: C4-2B cells were plated at 1,000 cells per well. […] ISIS 549148 was included as a negative control. […] After a treatment period of 5 days, the proliferative capacity of the cancer cells was measured with CellTiter 96® AQueous One Solution Cell Proliferation kit (Promega), following the manufacturer's instructions. […]

TMPRSS2 mRNA = assay: TMPRSS2 expression in C4-2 cells; settings: 48 hrs; for Percent inhibition of TMPRSS2 expression: C4-2 cells, CSS + DHT medium
Method: Cells were plated at 1,000 cells per well. […] After an incubation period of 48 hrs, RNA levels of AR, PSA and TMPRSS2 were measured.
Cells were plated at 2,000 cells per well and cultured in CSS media with 1 nM DHT. […] After an incubation period of 48 hrs, RNA levels of AR, PSA and TMPRSS2 were measured.

AR mRNA [1] = assay: AR RNA expression in LNCaP cells (complete, CSS, CSS+DHT medium); settings: for Percent expression of AR in LNCaP cells cultured in CSS + DHT medium: CSS + DHT (1 nM) medium; for Percent expression of AR in LNCaP cells cultured in CSS + DHT medium / Percent expression of AR in LNCaP cells cultured in CSS medium: 48 hrs; for Percent expression of AR in LNCaP cells cultured in complete medium: 48 hours
Method: Cells were plated at 1,000 cells per well. […] After an incubation period of 48 hours, RNA levels of AR, PSA and TMPRSS2 were measured.
Cells were plated at 2,000 cells per well and cultured in phenol red-free RPMI supplemented with 5% charcoal stripped serum (Gibco) media for 16 hours. […] After an incubation period of 4 hrs, DHT was added to the medium to a final concentration of 1 nM as indicated. RNAs were collected 48 hrs later and levels of AR, PSA and TMPRSS2 were measured.

AR mRNA [2] = assay: AR RNA expression in C4-2B cells (complete, CSS+DHT medium; Example 30); settings: 48 hrs
Method: Cells were plated at 1,000 cells per well. […] ISIS 549148 was included as a negative control. […] After an incubation period of 48 hrs, RNA levels of AR, PSA and TMPRSS2 were measured.
Cells were plated at 2,000 cells per well and cultured in CSS media with 1 nM DHT. […] ISIS 549148 was included as a negative control. […] After an incubation period of 48 hrs, RNA levels of AR, PSA and TMPRSS2 were measured. In the absence of DHT, AR expression in C4-2 cells was 188%, PSA expression was 43% and TMPRSS2 expression was 27% compared to the untreated control.

Sequence: GGCTACTACGCCGTCA (3-10-3 (S)-cEt gapmer, chemistry not fully specified) [ISIS 549148, reference compound]
- Proliferation (% untreated control) in C4-2B without MDV-3100 (C4-2B cells; ASO dose 0.08 μM): 111 % untreated control
- Proliferation (% untreated control) in C4-2B with 0.08 μM MDV-3100 (C4-2B cells; ASO dose 0.2 μM + 0.08 μM MDV-3100): 123 % untreated control
- Proliferation (% untreated control) in C4-2B with 0.4 μM MDV-3100 (C4-2B cells; ASO dose 0.2 μM + 0.4 μM MDV-3100): 88 % untreated control
- Proliferation (% untreated control) in C4-2B with 2.0 μM MDV-3100 (C4-2B cells; ASO dose 0.2 μM + 2.0 μM MDV-3100): 52 % untreated control
- Proliferation (% untreated control) in C4-2B with […] MDV-3100 (C4-2B cells; ASO dose 0.2 μM + […] MDV-3100): 124 % untreated control
- Proliferation (% untreated control) in C4-2B without MDV-3100 (C4-2B cells; ASO dose 0.2 μM): 118 % untreated control
- Proliferation (% untreated control) in C4-2B with 0.08 μM MDV-3100 (C4-2B cells; ASO dose 1.0 μM + 0.08 μM MDV-3100): 114 % untreated control
- Proliferation (% untreated control) in C4-2B with 0.4 μM MDV-3100 (C4-2B cells; ASO dose 1.0 μM + 0.4 μM MDV-3100): 88 % untreated control
- Proliferation (% untreated control) in C4-2B with 2.0 μM MDV-3100 (C4-2B cells; ASO dose 1.0 μM + 2.0 μM MDV-3100): 59 % untreated control
- Proliferation (% untreated control) in C4-2B with […] MDV-3100 (C4-2B cells; ASO dose 1.0 μM + […] MDV-3100): 103 % untreated control
- Proliferation (% untreated control) in C4-2B without MDV-3100 (C4-2B cells; ASO dose 1.0 μM): 126 % untreated control
- Percent inhibition of TMPRSS2 expression (TMPRSS2 mRNA; 0.04 μM): 3%
- Percent inhibition of TMPRSS2 expression (TMPRSS2 mRNA; 0.2 μM): 0%
- Percent inhibition of TMPRSS2 expression (TMPRSS2 mRNA; 1 μM): 22%
- Percent inhibition of TMPRSS2 expression (TMPRSS2 mRNA; 5.0 μM): 28%
- Percent inhibition of TMPRSS2 expression in C4-2 cells cultured in complete medium (TMPRSS2 mRNA; 0.04 μM): 2%
- Percent inhibition of TMPRSS2 expression in C4-2 cells cultured in complete medium (TMPRSS2 mRNA; 0.2 μM): 7%
- Percent inhibition of TMPRSS2 expression in C4-2 cells cultured in complete medium (TMPRSS2 mRNA; 1 μM): 10%
- Percent inhibition of TMPRSS2 expression in C4-2 cells cultured in complete medium (TMPRSS2 mRNA; 5.0 μM): 0%
- Percent expression of AR in LNCaP cells cultured in CSS + DHT medium (AR mRNA [1]; 0.04 μM): 98%
- Percent expression of AR in LNCaP cells cultured in CSS + DHT medium (AR mRNA [1]; 0.2 μM): 102%
- Percent expression of AR in LNCaP cells cultured in CSS + DHT medium (AR mRNA [1]; 1 μM): 96%
- Percent expression of AR in LNCaP cells cultured in CSS medium (AR mRNA [1]; 0.04 μM): 106%
- Percent expression of AR in LNCaP cells cultured in CSS medium (AR mRNA [1]; 0.2 μM): 97%
- Percent expression of AR in LNCaP cells cultured in CSS medium (AR mRNA [1]; 1 μM): 96%
- Percent expression of AR in LNCaP cells cultured in CSS medium (AR mRNA [1]; 5.0 μM): 104%
- Percent expression of AR in LNCaP cells cultured in complete medium (AR mRNA [1]; 0.04 μM): 102%
- Percent expression of AR in LNCaP cells cultured in complete medium (AR mRNA [1]; 1 μM): 109%
- Percent expression of AR in LNCaP cells cultured in complete medium (AR mRNA [1]; 5.0 μM): 109%
- Percent expression of AR (AR mRNA [2]; CSS + DHT medium, 0.04 μM): 91%
- Percent expression of AR (AR mRNA [2]; CSS + DHT medium, 0.2 μM): 104%
- Percent expression of AR (AR mRNA [2]; CSS + DHT medium, 1 μM): 101%
- Percent expression of AR (AR mRNA [2]; CSS + DHT medium, 5.0 μM): 95%
- Percent expression of AR (AR mRNA [2]; complete medium, 0.04 μM): 101%
- Percent expression of AR (AR mRNA [2]; complete medium, 0.2 μM): 91%
- Percent expression of AR (AR mRNA [2]; complete medium, 1 μM): 88%
- Percent expression of AR (AR mRNA [2]; complete medium, 5.0 μM): 87%
